Results published in patent US9782399B2, “Pharmaceutical compositions which inhibit FKBP52-mediated regulation of androgen receptor function and methods of using same” (The United States of America, as represented by the …, priority 2009, dated 2017).

Tested on: FKBP52-enhanced AR function
Assay: AR-mediated luciferase reporter assay in 52KO MEF cells
Assay type: cell-based, murine
Conditions: compound 1 hour, then DHT 16 hours
Protocol: FIG. 5B is a bar graph showing data from an experiment where 52KO MEF cells were treated at 50% confluency with a range of concentrations of Compound 2, and cell numbers were counted by trypan blue exclusion after 24 hours. FIG. 5C depicts Western blots on the same cell lysates from FIG. 5B, with compound 2 concentrations starting at 0, and increasing from about 0.1, 1, 10, to 100 μM.
To further characterize the compounds of interest selected from the yeast library assay, the inventors created a mammalian model system, comprising a receptor-mediated luciferase reporter assay, using in a murine embryonic fibroblast cell line (MEF) which has the gene for FKBP52 knocked out (52KO MEFs). […] To control for specificity and general toxicity, the inventors assessed the effects of the inhibitors on receptor function in the absence of FKBP52. […] The half maximal lethal dose (LD50) was also determined for all cell types used in these studies. The LD50 was determined by performing dose response curves in which the measure of toxicity will be cell death (via trypan blue exclusion). […]
β-galactosidase activity was measured by addition of 100 μl Tropix Gal-Screen assay reagent (Applied Biosystems, Foster City, Calif.) to about 6 μl lysate in an opaque 96-well plate. […]

Cc1ccc(NC(=O)c2ccccc2C(=O)O)cc1C [Compound 1]
inhibition of FKBP52-enhanced AR function in mammalian cells: consistent from yeast to mammalian cells
